We go through 15 compounds from US20260015337A1 (Trawsfynydd Therapeutics, Inc., priority 2022, published 2026).

For this assay, the target named is 3CL Protease (Severe acute respiratory syndrome coronavirus 2, UniProt P0DTD1). Description: 3CL Protease enzymatic activity assay (BPS Bioscience Assay Kit #78043-1, fluorescence). In kind it is biochemical, SARS-CoV-2. The conditions noted are these: Table A; 30 min preincubation, 40 μM substrate, 4 hours at room temperature; read-out: IC50, nM (3CL Protease enzymatic activity). Here is the method: For determination of 3CL Protease enzymatic activity was used Assay Kit of BPS Bioscience, San Diego, CA (Catalog #78043-1).
All samples and controls should be tested in duplicate. • 1) Just before use, dilute 0.5 M DTT 500 times into the 3CL Protease Assay Buffer to obtain a DTT concentration of 1 mM. For example, add 10 μl of 0.5 M DTT to 5 ml of assay buffer. Prepare enough DTT-containing buffer as required for the assay. Store the remaining assay buffer at −20° C. • 2) Thaw the 3CL Protease on ice. Briefly spin the tube containing the enzyme to recover the full content of the tube. Note: 3CL Protease enzyme is sensitive to freeze/thaw cycles. […] Note: The exact concentration and volume of enzyme is lot-specific and will be indicated on the tube. Calculate required dilution from the information in the tube. It may be desirable to dilute the enzyme serially to avoid using large amounts of protease assay buffer for the dilution. • 4) Add 30 μl of diluted 3CL Protease to the wells designated as “Positive Control,” “Inhibitor Control,” and “Test Inhibitor.” Add 30 μl of Assay Buffer (containing 1 mM DTT) to the “Blank” wells. • 5) Dilute the 50 μg GC376 in 200 μl of Assay Buffer to obtain a 500 μM solution. Add 10 μl of GC376 (500 μM) to the wells labeled “Inhibitor Control”. Aliquot and store the remaining solution at −80° C. • 6) Prepare the Test Inhibitor. The final concentration of DMSO in the assay should not exceed 1%. If the Test Inhibitor is dissolved in DMSO, make a 100-fold higher concentration of the compound than the highest desired concentration. Then make a 20-fold dilution in 1× Assay Buffer (containing DTT). At this step the compound concentration is 5-fold higher than the final concentration. If the test inhibitor is dissolved in water, make a 5-fold higher concentration of the test compound than the final desired concentration in the Assay buffer (containing DTT). Add 10 μl of Test Inhibitor to each well designated “Test Inhibitor”. • 7) Diluent Solution (no inhibitor): add 10 μl of assay buffer (if the test compound is water soluble and was diluted in assay buffer) or 10 μl of 5% DMSO diluted in assay buffer (if DMSO was used to dissolve the test inhibitor) to “Blank” and “Positive Control” wells.
• 8) Preincubate for 30 min at room temperature with slow shaking. • 9) Dilute the 25 μl of 3CL Protease substrate (10 mM) in 1.25 ml of the Assay Buffer containing DTT, to make a […] solution. The final concentration of the 3CL Protease substrate in a 50 μl reaction is 40 μM. • 10) Start the reaction by adding 10 μl of the substrate solution to all the wells. Seal the plate with the plate sealer and incubate for 4 hours at room temperature with slow shaking. • 11) Measure the fluorescence intensity in a microtiter plate-reader fluorometer (Tecan Spark Cyto) capable of excitation at a wavelength 360 nm and detection of emission at a wavelength 460 nm. The fluorescence intensity can also be measured kinetically. The “Blank” value is subtracted from all other values. • The % inhibition was then used to calculate the IC50 values.
As to `CC1(C)CCc2[nH]c(=O)c(CC(C#N)NC(=O)[C@@H]3C4[C@H](CN3C(=O)[C@@H](NS(C)(=O)=O)C(C)(C)C)C4(C)C)cc2C1` (stereo in doubt) [Compound 128, (1R,2S,5S)—N-(1-Cyano-2-(6,6-dimethyl-2-oxo-1,2,5,6,7,8-hexahydroquinolin-3-yl)ethyl)-3-((S)-3,3-dimethyl-2-(methylsulfonamido)butanoyl)-6,6-dimethyl-3-azabicyclo[3.1.0]hexane-2-carboxamide], the IC50 was in the range of 500 to 1000 nM. For `Cc1cc2cc(CC(C#N)NC(=O)[C@@H]3C4[C@H](CN3C(=O)[C@@H](NC(=O)C(F)(F)F)C(C)(C)C)C4(C)C)c(=O)[nH]c2cc1C` (stereo in doubt) [Compound 145, (1R,2S,5S)—N-(1-cyano-2-(6,7-dimethyl-2-oxo-1,2-dihydroquinolin-3-yl)ethyl)-3-((S)-3,3-dimethyl-2-(2,2,2-trifluoroacetamido)butanoyl)-6,6-dimethyl-3-azabicyclo[3.1.0]hexane-2-carboxamide], the IC50 lay within 50 to 100 nM.

In the case of `Cc1ccc2cc(CC(C#N)NC(=O)[C@@H]3C4[C@H](CN3C(=O)[C@@H](NC(=O)C(F)(F)F)C(C)(C)C)C4(C)C)c(=O)[nH]c2c1` (stereo in doubt) [Compound 146, (1R,2S,5S)—N-(1-Cyano-2-(7-methyl-2-oxo-1,2-dihydroquinolin-3-yl)ethyl)-3-((S)-3,3-dimethyl-2-(2,2,2-trifluoroacetamido)butanoyl)-6,6-dimethyl-3-azabicyclo[3.1.0]hexane-2-carboxamide], the IC50 is 50 to 100 nM. Regarding `Cc1ccc2[nH]c(=O)c(C[C@@H](C#N)NC(=O)[C@@H]3C4[C@H](CN3C(=O)[C@@H](NS(C)(=O)=O)C(C)(C)C)C4(C)C)cc2c1` (stereo in doubt) [Compound 147, (1R,2S,5S)—N-[(1S)-1-cyano-2-(6-methyl-2-oxo-1H-quinolin-3-yl)ethyl]-3-[(2S)-2-(methanesulfonamido)-3,3-dimethyl-butanoyl]-6,6-dimethyl-3-azabicyclo[3.1.0]hexane-2-carboxamide], the IC50 was less than 50 nM. Regarding `Cc1ccc2[nH]c(=O)c(C[C@H](C#N)NC(=O)[C@@H]3C4[C@H](CN3C(=O)[C@@H](NS(C)(=O)=O)C(C)(C)C)C4(C)C)cc2c1` (stereo in doubt) [Compound 148, (1R,2S,5S)—N-[(1R)-1-cyano-2-(6-methyl-2-oxo-1H-quinolin-3-yl)ethyl]-3-[(2S)-2-(methanesulfonamido)-3,3-dimethyl-butanoyl]-6,6-dimethyl-3-azabicyclo[3.1.0]hexane-2-carboxamide], the IC50 is not below 1000 nM. Next, `Cc1ccc2[nH]c(=O)c(CC(C#N)NC(=O)[C@@H]3C4[C@H](CN3C(=O)[C@@H](Nc3nc(C)cs3)C(C)(C)C)C4(C)C)cc2c1` (stereo in doubt) [Compound 151, (1R,2S,5S)—N-(1-Cyano-2-(6-methyl-2-oxo-1,2-dihydroquinolin-3-yl)ethyl)-3-((S)-3,3-dimethyl-2-((4-methylthiazol-2-yl)amino)butanoyl)-6,6-dimethyl-3-azabicyclo[3.1.0]hexane-2-carboxamide]: 500 to 1000 nM; `Cc1ccc2[nH]c(=O)c(CC(C#N)NC(=O)[C@@H]3C4[C@H](CN3C(=O)[C@@H](Nc3ncc(C)s3)C(C)(C)C)C4(C)C)cc2c1` (stereo in doubt) [Compound 152, (1R,2S,5S)—N-(1-Cyano-2-(6-methyl-2-oxo-1,2-dihydroquinolin-3-yl)ethyl)-3-((S)-3,3-dimethyl-2-((5-methylthiazol-2-yl)amino)butanoyl)-6,6-dimethyl-3-azabicyclo[3.1.0]hexane-2-carboxamide]: 100 to 250 nM; `Cc1ccc2[nH]c(=O)c(CC(C#N)NC(=O)[C@@H]3C4[C@H](CN3C(=O)[C@@H](Nc3nccc(C(F)(F)F)n3)C(C)(C)C)C4(C)C)cc2c1` (stereo in doubt) [Compound 156, (1R,2S,5S)—N-(1-Cyano-2-(6-methyl-2-oxo-1,2-dihydroquinolin-3-yl)ethyl)-3-((S)-3,3-dimethyl-2-((4-(trifluoromethyl)pyrimidin-2-yl)amino)butanoyl)-6,6-dimethyl-3-azabicyclo[3.1.0]hexane-2-carboxamide]: not below 1000 nM. For `Cc1ccc2[nH]c(=O)c(C[C@@H](C#N)NC(=O)[C@@H]3C4[C@H](CN3C(=O)[C@@H](Nc3nc(C)cs3)C(C)(C)C)C4(C)C)cc2c1` (stereo in doubt) [Compound 157, (1R,2S,5S)—N—((S)-1-Cyano-2-(6-methyl-2-oxo-1,2-dihydroquinolin-3-yl)ethyl)-3-((S)-3,3-dimethyl-2-((4-methylthiazol-2-yl)amino)butanoyl)-6,6-dimethyl-3-azabicyclo[3.1.0]hexane-2-carboxamide], the IC50 is 250 to 500 nM. Take `Cc1ccc2[nH]c(=O)c(C[C@@H](C#N)NC(=O)[C@@H]3C4[C@H](CN3C(=O)[C@@H](Nc3ncc(C)s3)C(C)(C)C)C4(C)C)cc2c1` (stereo in doubt) [Compound 158, (1R,2S,5S)—N—((S)-1-Cyano-2-(6-methyl-2-oxo-1,2-dihydroquinolin-3-yl)ethyl)-3-((S)-3,3-dimethyl-2-((5-methylthiazol-2-yl)amino)butanoyl)-6,6-dimethyl-3-azabicyclo[3.1.0]hexane-2-carboxamide]: the IC50 is 50 to 100 nM. `Cc1ccc2[nH]c(=O)c(C[C@@H](C#N)NC(=O)[C@@H]3C4[C@H](CN3C(=O)[C@@H](Nc3ccnc(C)n3)C(C)(C)C)C4(C)C)cc2c1` (stereo in doubt) [Compound 159, (1R,2S,5S)—N—((S)-1-Cyano-2-(6-methyl-2-oxo-1,2-dihydroquinolin-3-yl)ethyl)-3-((S)-3,3-dimethyl-2-((2-methylpyrimidin-4-yl)amino)butanoyl)-6,6-dimethyl-3-azabicyclo[3.1.0]hexane-2-carboxamide]: the IC50 is not below 1000 nM. As to `Cc1ccc2[nH]c(=O)c(C[C@@H](C#N)NC(=O)[C@@H]3C4[C@H](CN3C(=O)[C@@H](Nc3nccc(C)n3)C(C)(C)C)C4(C)C)cc2c1` (stereo in doubt) [Compound 160, (1R,2S,5S)—N—((S)-1-Cyano-2-(6-methyl-2-oxo-1,2-dihydroquinolin-3-yl)ethyl)-3-((S)-3,3-dimethyl-2-((4-methylpyrimidin-2-yl)amino)butanoyl)-6,6-dimethyl-3-azabicyclo[3.1.0]hexane-2-carboxamide], the IC50 was not below 1000 nM. Regarding `Cc1ccc2[nH]c(=O)c(C[C@@H](C#N)NC(=O)[C@@H]3C4[C@H](CN3C(=O)[C@@H](Nc3ccnc(C(F)(F)F)n3)C(C)(C)C)C4(C)C)cc2c1` (stereo in doubt) [Compound 161, (1R,2S,5S)—N—((S)-1-Cyano-2-(6-methyl-2-oxo-1,2-dihydroquinolin-3-yl)ethyl)-3-((S)-3,3-dimethyl-2-((2-(trifluoromethyl)pyrimidin-4-yl)amino)butanoyl)-6,6-dimethyl-3-azabicyclo[3.1.0]hexane-2-carboxamide], the IC50 was not below 1000 nM.

For `Cc1ccc2[nH]c(=O)c(CC(C#N)NC(=O)[C@@H]3C4[C@H](CN3C(=O)[C@@H](NC(=O)OC(C)(C)C)C(C)(C)C)C4(C)C)cc2c1` (stereo in doubt) [Compound 171, tert-Butyl ((2S)-1-((1R,2S,5S)-2-((1-cyano-2-(6-methyl-2-oxo-1,2-dihydroquinolin-3-yl)ethyl)carbamoyl)-6,6-dimethyl-3-azabicyclo[3.1.0]hexan-3-yl)-3,3-dimethyl-1-oxobutan-2-yl)carbamate], the IC50 fell in the range of 250 to 500 nM. For `COC(=O)N[C@@H](C(=O)N1CC2C(C1C(=O)N[C@@H](C#N)Cc1cc3cc(C)ccc3[nH]c1=O)C2(C)C)C(C)(C)C` (stereo in doubt) [Compound 200, Methyl N-[(1R)-1-[(1S)-2-[[(1R)-1-cyano-2-(6-methyl-2-oxo-1H-quinolin-3-yl)ethyl]carbamoyl]-6,6-dimethyl-3-azabicyclo[3.1.0]hexane-3-carbonyl]-2,2-dimethyl-propyl]carbamate], the IC50 is less than 50 nM.

The IC50 is the concentration at which inhibition is half-maximal.
